In patent US20180280377A1, “Imidazo[4,5-c]quinolin-2-one Compounds and Their Use in Treating Cancer” (ASTRAZENECA AB, priority 2015, published 2018):

Key:
ATM = target: T1, ATM (Homo sapiens, UniProt Q13315); experiment: ATM cellular potency assay (pATM Ser1981 in irradiated HT29 cells); format: cell-based; conditions: 1 h compound, X-ray irradiation, pATM (Ser1981); Table 2; read-out: Assay a) ATM Cell IC50
T1 construct: endogenous in cells; host or cells: HT29 cells (ECACC #85061109)
Description: (§1) The following assays were used to measure the effects of the compounds of the present invention: a) ATM cellular potency assay; b) PI3K cellular potency assay; c) mTOR cellular potency assay; d) ATR cellular potency assay. During the description of the assays, generally: • i. […] IC50 values were calculated using a smart fitting model in Genedata.
Most ATM molecules in the cell are rapidly phosphorylated on this site after doses of radiation as low as 0.5 Gy, and binding of a phosphospecific antibody is detectable after the introduction of only a few DNA double-strand breaks in the cell.
The rationale of the pATM assay is to identify inhibitors of ATM in cells. HT29 cells are incubated with test compounds for 1 h prior to X-ray-irradiation. 1 h later the cells are fixed and stained for pATM (Ser1981). The fluorescence is read on the arrayscan imaging platform.
The following morning compounds of Formula (I) in 100% DMSO were added to assay plates by acoustic dispensing. After 1 h incubation at 37° C. and 5% CO2, plates (up to 6 at a time) were irradiated using the X-RAD 320 instrument (PXi) with equivalent to 600 cGy. Plates were returned to the incubator for a further 1 h. Then cells were fixed by adding 20 μl of 3.7% formaldehyde in PBS solution and incubating for 20 minutes at r.t. before being washed with 50μl/well PBS, using a Biotek EL405 plate washer. Then 20 μl of 0.1% Triton X100 in PBS was added and incubated for 20 minutes at r.t., to permeabalise cells. Then the plates were washed once with 50 μl/well PBS, using a Biotek EL405 plate washer.
After 1 h incubation at r.t., the plates were washed three times with 50 μl/well PBS, using a Biotek EL405 plate washer, and plates were sealed and kept in PBS at 4° C. until read. Plates were read using an ArrayScan VTI instrument, using an XF53 filter with 10× objective.

ATR = target: T2, ATR (Homo sapiens, UniProt Q13535); experiment: ATR cellular potency assay (pChk1 Ser345 in HT29 cells after 4NQO); format: cell-based; conditions: pChk1 (Ser 345); Table 2; read-out: Assay b) ATR Cell IC50
T2 construct: endogenous in cells; host or cells: HT29 cells (ECACC #85061109)
Description: as §1
ATR is a PI3-kinase-related kinase which phosphorylates multiple substrates on serine or threonine residues in response to DNA damage during or replication blocks. Chk1, a downstream protein kinase of ATR, plays a key role in DNA damage checkpoint control. Activation of Chk1 involves phosphorylation of Ser317 and Ser345 (the latter regarded as the preferential target for phosphorylation/activation by ATR).
The following morning compound of Formula (I) in 100% DMSO were added to assay plates by acoustic dispensing. After 1 h incubation at 37° C. and 5% CO2, 40 nl of 3 mM 4NQO in 100% DMSO was added to all wells by acoustic dispensing, except minimum control wells which were left untreated with 4NQO to generate a null response control. Plates were returned to the incubator for a further 1 h. Then cells were fixed by adding 20 μl of 3.7% formaldehyde in PBS solution and incubating for 20 mins at r.t. Then […] of 0.1% Triton X100 in PBS was added and incubated for 10 minutes at r.t., to permeabalise cells. Then the plates were washed once with […] PBS, using a Biotek EL405 plate washer.
After 2 h incubation at r.t., the plates were washed three times with […] PBS, using a Biotek EL405 plate washer, and plates were then sealed with black plate seals until read. Plates were read using an ArrayScan VTI instrument, using an XF53 filter with 10× objective.

T1 sequence (Q13315 whole entry): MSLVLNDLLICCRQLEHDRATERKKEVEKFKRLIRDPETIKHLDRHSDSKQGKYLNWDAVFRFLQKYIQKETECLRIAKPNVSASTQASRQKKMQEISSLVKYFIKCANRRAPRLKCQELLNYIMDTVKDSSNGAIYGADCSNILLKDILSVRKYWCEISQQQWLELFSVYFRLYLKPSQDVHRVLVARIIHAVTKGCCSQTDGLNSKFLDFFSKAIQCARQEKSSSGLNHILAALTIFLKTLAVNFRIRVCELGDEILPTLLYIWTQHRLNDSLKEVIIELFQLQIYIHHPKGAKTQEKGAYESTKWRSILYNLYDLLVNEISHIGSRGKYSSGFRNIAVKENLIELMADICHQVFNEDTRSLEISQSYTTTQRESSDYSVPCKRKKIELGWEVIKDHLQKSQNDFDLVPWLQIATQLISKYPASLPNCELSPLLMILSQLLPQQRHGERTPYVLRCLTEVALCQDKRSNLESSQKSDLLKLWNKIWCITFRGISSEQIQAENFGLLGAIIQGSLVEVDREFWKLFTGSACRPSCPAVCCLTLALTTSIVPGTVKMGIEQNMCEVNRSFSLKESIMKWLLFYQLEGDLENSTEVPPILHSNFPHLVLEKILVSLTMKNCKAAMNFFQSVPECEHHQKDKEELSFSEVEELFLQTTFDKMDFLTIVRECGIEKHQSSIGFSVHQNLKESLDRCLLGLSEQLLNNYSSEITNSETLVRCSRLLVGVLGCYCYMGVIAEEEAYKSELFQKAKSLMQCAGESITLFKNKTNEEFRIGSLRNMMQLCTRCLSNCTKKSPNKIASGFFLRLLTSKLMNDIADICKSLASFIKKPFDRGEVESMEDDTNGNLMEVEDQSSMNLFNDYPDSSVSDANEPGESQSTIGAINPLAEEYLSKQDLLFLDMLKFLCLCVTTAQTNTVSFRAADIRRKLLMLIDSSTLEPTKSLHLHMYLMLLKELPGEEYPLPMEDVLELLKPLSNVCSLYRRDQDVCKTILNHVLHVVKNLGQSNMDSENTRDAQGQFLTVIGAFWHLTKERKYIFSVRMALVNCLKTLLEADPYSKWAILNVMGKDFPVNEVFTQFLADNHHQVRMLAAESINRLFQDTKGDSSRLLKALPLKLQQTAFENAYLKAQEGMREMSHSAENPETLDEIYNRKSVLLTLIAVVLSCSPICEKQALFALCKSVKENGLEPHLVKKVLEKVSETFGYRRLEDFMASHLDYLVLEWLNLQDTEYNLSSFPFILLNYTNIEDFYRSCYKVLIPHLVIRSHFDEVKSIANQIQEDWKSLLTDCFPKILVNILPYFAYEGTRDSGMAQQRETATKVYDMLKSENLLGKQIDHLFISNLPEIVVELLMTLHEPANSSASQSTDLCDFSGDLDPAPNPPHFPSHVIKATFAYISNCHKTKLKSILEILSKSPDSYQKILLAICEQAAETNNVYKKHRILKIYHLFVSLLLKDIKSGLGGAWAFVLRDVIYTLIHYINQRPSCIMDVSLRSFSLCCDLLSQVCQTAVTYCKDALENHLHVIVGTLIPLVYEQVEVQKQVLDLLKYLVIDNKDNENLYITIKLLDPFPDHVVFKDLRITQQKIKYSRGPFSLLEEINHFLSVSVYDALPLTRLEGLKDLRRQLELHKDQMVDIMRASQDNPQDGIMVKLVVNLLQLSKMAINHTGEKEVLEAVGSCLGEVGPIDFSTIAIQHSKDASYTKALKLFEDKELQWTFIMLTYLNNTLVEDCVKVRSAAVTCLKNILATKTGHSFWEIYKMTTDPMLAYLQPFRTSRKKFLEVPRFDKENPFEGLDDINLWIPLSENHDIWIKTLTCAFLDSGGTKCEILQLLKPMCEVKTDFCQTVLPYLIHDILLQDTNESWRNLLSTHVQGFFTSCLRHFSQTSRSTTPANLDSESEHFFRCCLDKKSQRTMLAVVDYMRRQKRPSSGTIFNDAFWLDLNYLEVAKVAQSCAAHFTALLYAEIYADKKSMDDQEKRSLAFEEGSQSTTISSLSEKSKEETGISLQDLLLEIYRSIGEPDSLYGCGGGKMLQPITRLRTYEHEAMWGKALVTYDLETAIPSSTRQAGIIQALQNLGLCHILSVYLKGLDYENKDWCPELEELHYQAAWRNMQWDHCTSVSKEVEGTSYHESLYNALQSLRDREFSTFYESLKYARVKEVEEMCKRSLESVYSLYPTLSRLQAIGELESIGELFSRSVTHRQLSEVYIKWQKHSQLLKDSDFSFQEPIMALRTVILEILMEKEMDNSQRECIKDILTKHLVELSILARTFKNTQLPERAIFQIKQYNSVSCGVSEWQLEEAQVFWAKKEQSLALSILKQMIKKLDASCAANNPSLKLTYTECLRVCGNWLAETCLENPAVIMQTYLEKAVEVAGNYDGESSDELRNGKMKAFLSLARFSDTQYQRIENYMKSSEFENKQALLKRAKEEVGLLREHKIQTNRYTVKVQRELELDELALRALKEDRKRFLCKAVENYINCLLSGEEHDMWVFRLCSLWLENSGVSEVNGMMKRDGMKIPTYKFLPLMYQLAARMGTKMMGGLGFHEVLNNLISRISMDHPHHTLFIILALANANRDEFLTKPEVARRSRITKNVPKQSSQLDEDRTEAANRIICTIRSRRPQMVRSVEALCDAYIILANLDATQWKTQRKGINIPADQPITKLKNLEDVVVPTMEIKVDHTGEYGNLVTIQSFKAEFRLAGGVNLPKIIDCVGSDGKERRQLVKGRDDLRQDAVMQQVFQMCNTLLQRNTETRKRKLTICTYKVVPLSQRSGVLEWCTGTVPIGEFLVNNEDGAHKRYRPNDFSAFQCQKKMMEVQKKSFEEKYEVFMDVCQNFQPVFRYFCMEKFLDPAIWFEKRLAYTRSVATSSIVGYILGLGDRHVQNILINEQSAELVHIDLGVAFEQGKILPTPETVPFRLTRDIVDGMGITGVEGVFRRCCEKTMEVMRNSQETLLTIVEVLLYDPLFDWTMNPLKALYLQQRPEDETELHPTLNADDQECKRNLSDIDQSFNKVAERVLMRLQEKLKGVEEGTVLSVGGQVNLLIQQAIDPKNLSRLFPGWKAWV

SMILES | IC50 (ATM) [nM] | IC50 (ATR) [nM]
CO[C@@H]1CCC[C@H](n2c(=O)n(C)c3cnc4ccc(-c5ccc(N6CCC(N(C)C)CC6)nc5)cc4c32)C1 (single isomer, unassigned) [Example 45] | 0.618 | > 30000
CN(C)[C@H]1CCN(c2ccc(-c3cc4c(cc3F)ncc3c4n([C@@H]4CCCOC4)c(=O)n3C)cn2)C1 [Example 19] | 63.4 | > 30000
CO[C@@H]1CCC[C@H](n2c(=O)n(C)c3cnc4ccc(-c5ccc(N6CCC(N(C)C)CC6)nc5)cc4c32)C1 (single isomer, unassigned) [Example 46, 8-[6-[4-(dimethylamino)-1-piperidyl]-3-pyridyl]-1-[cis-3-methoxycyclohexyl]-3-methyl-imidazo[4,5-c]quinolin-2-one] | 7.7 | > 10000
CN(C)C1CCN(c2ccc(-c3ccc4ncc5c(c4c3)n(C3CCC3)c(=O)n5C)cn2)CC1 [Example 37, 1-cyclobutyl-8-[6-[4-(dimethylamino)-1-piperidyl]-3-pyridyl]-3-methyl-imidazo[4,5-c]quinolin-2-one] | 0.911 | > 30000
CN(C)C1CN(c2ccc(-c3ccc4ncc5c(c4c3)n([C@H]3CCCOC3)c(=O)n5C)cn2)C1 [Example 24, 8-[6-[3-(dimethylamino)azetidin-1-yl]-3-pyridyl]-3-methyl-1-[(3S)-tetrahydropyran-3-yl]imidazo[4,5-c]quinolin-2-one] | 16.6 | 9230
CO[C@H]1CC[C@H](n2c(=O)n(C)c3cnc4ccc(-c5ccc(N6CC[C@@H](N(C)C)C6)nc5)cc4c32)CC1 [Example 12] | 0.434 | 223
CN(C)C1CN(c2ccc(-c3ccc4ncc5c(c4c3)n(C3CCOCC3)c(=O)n5C)cn2)C1 [Example 28, 8-[6-[3-(dimethylamino)azetidin-1-yl]-3-pyridyl]-3-methyl-1-tetrahydropyran-4-yl-imidazo[4,5-c]quinolin-2-one] | 19.5 | 18800
CO[C@H]1C[C@@H](n2c(=O)n(C)c3cnc4cc(F)c(-c5ccc(N6CCC[C@@H](N(C)C)C6)nc5)cc4c32)C1 [Example 43, 8-[6-[(3R)-3-(dimethylamino)-1-piperidyl]-3-pyridyl]-7-fluoro-1-(cis-3-methoxycyclobutyl)-3-methyl-imidazo[4,5-c]quinolin-2-one] | 72 | > 30000
CN(C)[C@@H]1CCN(c2ccc(-c3cc4c(cc3F)ncc3c4n([C@H]4CCCOC4)c(=O)n3C)cn2)C1 [Example 15] | 1.46 | > 30000
CO[C@H]1CC[C@H](n2c(=O)n(C)c3cnc4ccc(-c5ccc(N6CC(N(C)C)C6)nc5)cc4c32)C1 (single isomer, unassigned) [Example 22, 8-[6-[3-(dimethylamino)azetidin-1-yl]-3-pyridyl]-1-[trans-3-methoxycyclopentyl]-3-methyl-imidazo[4,5-c]quinolin-2-one] | 13.4 | 6710
CN(C)[C@@H]1CCN(c2ccc(-c3ccc4ncc5c(c4c3)n([C@H]3CCOC3)c(=O)n5C)cn2)C1 [Example 8] | 1.04 | 261
CN(C)C1CN(c2ccc(-c3ccc4ncc5c(c4c3)n([C@@H]3CCCOC3)c(=O)n5C)cn2)C1 [Example 27, 8-[6-[3-(dimethylamino)azetidin-1-yl]-3-pyridyl]-3-methyl-1-[(3R)-tetrahydropyran-3-yl]imidazo[4,5-c]quinolin-2-one] | 5.9 | 5950
CO[C@@H]1CCC[C@H](n2c(=O)n(C)c3cnc4ccc(-c5ccc(N6CC[C@@H](N(C)C)C6)nc5)cc4c32)C1 (single isomer, unassigned) [Example 47] | 2.7 | 1800
CN(C)[C@@H]1CCN(c2ccc(-c3cc4c(cc3F)ncc3c4n([C@@H]4CCCOC4)c(=O)n3C)cn2)C1 [Example 14] | 1.51 | 
CN(C)[C@@H]1CCN(c2ccc(-c3ccc4ncc5c(c4c3)n(C3CCOCC3)c(=O)n5C)cn2)C1 [Example 13] | > 23.9 | 
